Mutagenic call data for seven compounds are collected here from PubChem BioAssay AID1259407 (Chemical Carcinogenesis Research Information System (CCRIS), 2018).

The series has as its system CCRIS mutagenicity, Ames/micronucleus/aberration tests. Kind of series: CCRIS mutagenicity studies.
Where [1] appears, read: Test System: AMES SALMONELLA TYPHIMURIUM, Strain/Indicator: TA98, Metabolic Activation: NONE, Method: STANDARD PLATE.
[2] abbreviates: Test System: AMES SALMONELLA TYPHIMURIUM, Strain/Indicator: TA98, Metabolic Activation: RAT, LIVER, S-9, AROCLOR 1254, Method: STANDARD PLATE.
[3] abbreviates: Test System: AMES SALMONELLA TYPHIMURIUM, Strain/Indicator: TA100, Metabolic Activation: NONE, Method: STANDARD PLATE.
Setting [4] is: Test System: AMES SALMONELLA TYPHIMURIUM, Strain/Indicator: TA100, Metabolic Activation: RAT, LIVER, S-9, AROCLOR 1254, Method: STANDARD PLATE.
[5] abbreviates: Test System: AMES SALMONELLA TYPHIMURIUM, Strain/Indicator: TA1535, Metabolic Activation: NONE, Method: STANDARD PLATE.
Where [6] appears, read: Test System: AMES SALMONELLA TYPHIMURIUM, Strain/Indicator: TA1537, Metabolic Activation: NONE, Method: STANDARD PLATE.
Setting [7] is: Test System: AMES SALMONELLA TYPHIMURIUM, Strain/Indicator: TA1537, Metabolic Activation: RAT, LIVER, S-9, AROCLOR 1254, Method: STANDARD PLATE.

Calls of active or inactive are those of the source. How the calls were made is not given here.

Consider `Nc1ccc2cc3ccccc3nc2c1`, for which the mutagenic call (Test System: AMES SALMONELLA TYPHIMURIUM, Strain/Indicator: TA1535, Metabolic Activation: NONE, Method: PREINCUBATION) was “inactive; negative”; the mutagenic call (Test System: AMES SALMONELLA TYPHIMURIUM, Strain/Indicator: TA1535, Metabolic Activation: RAT, LIVER, S-9, TETRACHLOROBIPHENYL, Method: PREINCUBATION) was “active; positive”; the mutagenic call (Test System: AMES SALMONELLA TYPHIMURIUM, Strain/Indicator: TA1537, Metabolic Activation: NONE, Method: PREINCUBATION) is “active; positive”; the mutagenic call (Test System: AMES SALMONELLA TYPHIMURIUM, Strain/Indicator: TA1537, Metabolic Activation: RAT, LIVER, S-9, TETRACHLOROBIPHENYL, Method: PREINCUBATION) is “active; positive”; the mutagenic call (Test System: AMES SALMONELLA TYPHIMURIUM, Strain/Indicator: TA1538, Metabolic Activation: NONE, Method: PREINCUBATION) was “active; positive”; the mutagenic call (Test System: AMES SALMONELLA TYPHIMURIUM, Strain/Indicator: TA1538, Metabolic Activation: RAT, LIVER, S-9, TETRACHLOROBIPHENYL, Method: PREINCUBATION) is “active; positive”. Also, the mutagenic call reads like this: (Test System: AMES SALMONELLA TYPHIMURIUM, Strain/Indicator: TA1975, Metabolic Activation: RAT, LIVER, S-9, TETRACHLOROBIPHENYL, Method: PREINCUBATION) “inactive; negative”; (Test System: AMES SALMONELLA TYPHIMURIUM, Strain/Indicator: TA1977, Metabolic Activation: NONE, Method: PREINCUBATION) “active; positive”; (Test System: AMES SALMONELLA TYPHIMURIUM, Strain/Indicator: TA1977, Metabolic Activation: RAT, LIVER, S-9, TETRACHLOROBIPHENYL, Method: PREINCUBATION) “active; positive”; (Test System: AMES SALMONELLA TYPHIMURIUM, Strain/Indicator: TA1978, Metabolic Activation: RAT, LIVER, S-9, TETRACHLOROBIPHENYL, Method: PREINCUBATION) “active; positive”.

Regarding `O=C(O)CCCC[C@@H]1SC[C@@H]2NC(=O)N[C@@H]21`, the mutagenic call under setting [1] is “inactive; negative”; the mutagenic call under setting [2] is “inactive; negative”; the mutagenic call under setting [3] is “inactive; negative”; the mutagenic call under setting [4] was “inactive; negative”; the mutagenic call under setting [5] is “inactive; negative”; the mutagenic call (Test System: AMES SALMONELLA TYPHIMURIUM, Strain/Indicator: TA1535, Metabolic Activation: RAT, LIVER, S-9, AROCLOR 1254, Method: STANDARD PLATE) is “inactive; negative”. For the same compound, the mutagenic call by setting is: under setting [6], “inactive; negative”; under setting [7], “inactive; negative”; (Test System: AMES SALMONELLA TYPHIMURIUM, Strain/Indicator: TA1538, Metabolic Activation: NONE, Method: STANDARD PLATE) “inactive; negative”; (Test System: AMES SALMONELLA TYPHIMURIUM, Strain/Indicator: TA1538, Metabolic Activation: RAT, LIVER, S-9, AROCLOR 1254, Method: STANDARD PLATE) “inactive; negative”; (Test System: E. COLI, Strain/Indicator: WP2, Metabolic Activation: NONE, Method: STANDARD PLATE) “inactive; negative”; (Test System: E. COLI, Strain/Indicator: WP2, Metabolic Activation: RAT, LIVER, S-9, AROCLOR 1254, Method: STANDARD PLATE) “inactive; negative”.

Take `[Zn]`: the mutagenic call under setting [1] is “inactive; negative”; the mutagenic call (Test System: AMES SALMONELLA TYPHIMURIUM, Strain/Indicator: TA98, Metabolic Activation: RAT, LIVER, S-9, PHENOBARBITAL, Method: STANDARD PLATE) is “inactive; negative”; the mutagenic call (Test System: AMES SALMONELLA TYPHIMURIUM, Strain/Indicator: TA102, Metabolic Activation: NONE, Method: STANDARD PLATE) is “inactive; negative”; the mutagenic call (Test System: AMES SALMONELLA TYPHIMURIUM, Strain/Indicator: TA102, Metabolic Activation: RAT, LIVER, S-9, PHENOBARBITAL, Method: STANDARD PLATE) was “inactive; negative”; the mutagenic call under setting [5] was “inactive; negative”; the mutagenic call (Test System: AMES SALMONELLA TYPHIMURIUM, Strain/Indicator: TA1535, Metabolic Activation: RAT, LIVER, S-9, PHENOBARBITAL, Method: STANDARD PLATE) is “inactive; negative”. Further, the mutagenic call is, setting by setting: under setting [6], “inactive; negative”; (Test System: AMES SALMONELLA TYPHIMURIUM, Strain/Indicator: TA1537, Metabolic Activation: RAT, LIVER, S-9, PHENOBARBITAL, Method: STANDARD PLATE) “inactive; negative”; (Test System: UDS HUMAN AMNION FL CELL LINE, Strain/Indicator: THY INCORP, Metabolic Activation: NONE, Method: LIQUID SCINTILLATION COUNTING) “inactive; negative”.

For the compound `CC(=O)OCN(C)[N+](=O)[O-]`, the mutagenic call (Test System: AMES SALMONELLA TYPHIMURIUM, Strain/Indicator: TA100, Metabolic Activation: RAT, LIVER, S-9, AROCLOR 1254, Method: PREINCUBATION) was “active; positive”.

Take `C1COCCOCCOCCOCCOCCOCCO1`: the mutagenic call runs as follows: under setting [1], “inactive; negative”; under setting [2], “inactive; negative”; under setting [3], “inactive; negative”; under setting [4], “inactive; negative”; (Test System: AMES SALMONELLA TYPHIMURIUM, Strain/Indicator: TA1530, Metabolic Activation: NONE, Method: STANDARD PLATE) “inactive; negative”; (Test System: AMES SALMONELLA TYPHIMURIUM, Strain/Indicator: TA1530, Metabolic Activation: RAT, LIVER, S-9, AROCLOR 1254, Method: STANDARD PLATE) “inactive; negative”. The mutagenic call is “inactive; negative” under setting [6] and “inactive; negative” under setting [7].

As to `CCCCC/C=C/C=O`, the mutagenic call by setting is: (Test System: CHINESE HAMSTER V-79, Strain/Indicator: V-79/6-THIOGUANINE, Metabolic Activation: NONE, Method: STANDARD PLATE) “active; positive”; (Test System: CHINESE HAMSTER V-79, Strain/Indicator: V-79/OUABAIN, Metabolic Activation: NONE, Method: STANDARD PLATE) “inactive; negative”.

Consider `CC(=O)Nc1cc2c(cc1OC(C)=O)-c1ccccc1C2`, for which, under setting [2], the mutagenic call is “inactive; negative”.
